Entries after “also recorded” stand apart in the source; their conditions may differ.
Assays:
Type in all cases: in vivo, mouse
[1] = tested on: male TRAIL-/- mice; test: Masson's trichrome stain of lung 22 weeks post-radiation (late fibrosis); details: 18 Gy, 10 mg/kg twice a week
Source text: In order to examine the late term effects of thoracic radiation, we designed an experiment where the single radiation dose was lowered to 18 Gy in male TRAIL-/- mice. […] At 22 weeks when mice reached criteria for euthanasia, they were sacrificed and lung tissue was harvested. Lung tissue slides were stained with Masson's trichrome and imaged at 10X on an Olympus VS200 slide scanner.

[2] = tested on: serum cytokines; test: Serum cytokine analysis (Luminex) of irradiated mice; details: treated versus control
Procedure: Animal studies were carried out at Brown University facilities with approval from Brown University IACUC. C57B1/6 mice (Taconic), mice with bi-allelic loss of TRAIL Death Receptor-(DR5-/-) in a C57B1/6 background, and mice with bi-allelic loss of TRAIL (TRAIL -/-) in a C57B1/6 background were given a single whole-thorax x-ray (Philips RT250) irradiation dose of 20 Gy with shielding of other organs. 8-15-week-old male and female mice of each genotype were used. […] Treatment was continued for two weeks, where TLY012 was administered twice a week and ONC201 was administered once a week. For each genetic background, two mice received a control PO, two mice received TLY012 IP, and two mice received ONC201 PO. Mice were weighed twice a week, and 13 days post-irradiation all mice were euthanized. Organs were harvested from the mice and 600 μL of blood was collected via cardiac puncture for serum cytokine analysis. Organs were preserved in 10% formalin then embedded in paraffin and sectioned at a distance of 5 μm. […] TRAIL-/- female mice were also subjected to a survival study with a single whole-thorax radiation doses of 15 Gy or 18 Gy treated with the same regimen of TLY012 or control (n=2/radiation dose/treatment) (FIG. 3B). In order to determine the lethal dose of radiation for C57B1/6 mice, female C57B1/6 mice were treated with a single dose of whole-thorax irradiation of 25 Gy in a survival study where they were treated with either TLY012 or remained control (n=6/treatment) (FIG. 3C).
All mouse serum samples were analyzed by a custom R&D systems Murine Premixed Multi- Analyte Kit (R&D Systems, Inc., Minneapolis, MN). The panel was run on a Luminex 200 Instrument (Luminex Corporation, Austin, TX) according to the manufacturer's instructions. Murine serum levels of Angiopoietin-2, BAFF/BLyS/TNFSF13B, CCL2/JE/MCP-1, CCL3/MIP-1 alpha, CCL4/MIP-1 beta, CCL5/RANTES, CCL7/MCP-3/MARC, CCL11/Eotaxin, CCL12/MCP-5, CCL20/MIP-3 alpha, CCL21/6Ckine, CCL22/MDC, Chitinase 3-like 1, CXCL1/GRO alpha/KC/CINC-1, CXCL10/IP-10/CRG-2, CXCL12/S DF- 1 alpha, Dkk-1, FGF basic/FGF2/bFGF, GDF-15, GM-CSF, Granzyme B, IFN-gamma, IGF-I/IGF-1, IL-1 alpha/IL-1F1, IL-1 beta/IL-1F2, IL-2, IL-3, IL-4, IL-6, IL-7, IL-10, IL-13, IL-16, IL-17/IL-17A, IL-27, IL-33 M-CSF, MMP-3, MMP-8, MMP-12, Prolactin, TWEAK/TNFSF12, VEGF, and VEGFR2/KDR/Flk-1 were measured. Analyte values were reported in picograms per milliliter (pg/mL). […] Latent TGF-β was activated in samples using 1 N HCl and samples were neutralized with 1.2 N NaOH/0.5 M HEPES. Samples were assayed immediately after neutralization.

[3] = tested on: TRAIL-/- mice; test: Survival after whole-thorax irradiation, TRAIL-/- mice
Procedure: Starting one hour before irradiation, mice were treated with either 10 mg/kg of TLY012 (D&D Pharmatech) by intraperitoneal (IP) injection or 100 mg/kg of ONC201/TIC10 (Chimerix/Oncoceutics) by oral gavage (PO) or a control gavage consisting of 20% Cremophor® EL (Sigma #238470) and 70% Dulbecco's phosphate buffered saline solution (Cytiva SH30264.02) per volume via PO (n=2/gender/treatment).

Substance: TLY012: N-terminal PEGylated recombinant human TRAIL; PEGylated trimeric TRAIL formulation
- collagen deposition / fibrosis (Masson's trichrome) [1]: rescue; also recorded: decrease in collagen deposition; also recorded: less fibrosis
- CCL3/MIP-lalpha serum level [2]: increased
- CXCL1 serum level [2]: increased
- FGF basic serum level [2]: increase
- GDF-15 serum level [2]: increased
- IL6 serum level [2]: increased
- MMP-8 serum level [2]: increased
- protection from lethality ([3]; female TRAIL-/- mice, 15 Gy, FIG. 3B): protection from lethality
- survival ([3]; female TRAIL-/- mice, 18 Gy whole-thorax irradiation, FIG. 3B): 3 weeks
- survival / rescue from lethality ([3]; male TRAIL-/- mice, 18 Gy chest irradiation, 10 mg/kg, FIG. 3A): increased survival; also recorded: rescue from lethality

— patent US20230414715A1, “TRAIL COMPOUNDS FOR REDUCING CANCER TREAMENT SIDE EFFECTS” (BROWN UNIVERSITY, priority 2022, published 2023)
